Like-named read-outs stand apart in the source and are kept apart here.
Experiments:
[1] = target: wild-type Choristoneura fumiferana EcR (D, E and F domains) (Choristoneura fumiferana, UniProt O77240); type: cell-based; details: WT-CtEcR, 3T3 Cells; for RMFI (relative maximum fold induction): relative to GS-E ligand
Procedure, shortened: (§1)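 NIH3T3 cells were transiently co-transfected with GAL4-DBD fused to CfEcR DEF domains (wild-type or V390I/Y410E/E274V), VP16-AD fused to chimeric human/Locusta RXR, and a GAL4-response luciferase reporter. Ligand was given at 8 doses, 0.01–33 µM, 0.33% DMSO, luciferase read at 48 h. EC50 came from fold induction over DMSO via three-parameter logistic fit; Relative Max FI was taken versus GS™-E ligand.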

[2] = target: T1, [V390I/Y410E/E274V]-CfEcR (Choristoneura fumiferana, UniProt O77240); type: cell-based; details: 3T3 Cells; for RMFI (relative maximum fold induction): relative to GS-E ligand
T1 construct: assay construct b835
Procedure, shortened: as §1

For CCC[C@@H](N(NC(=O)c1cccc(Cl)c1)C(=O)c1cc(C)cc(C)c1)C(C)(C)C [Example 10, (R)-3,5-Dimethyl-benzoic acid N-(1-tert-butyl-butyl)-N′-(3-chloro-benzoyl)-hydrazide], the EC50 ([1]; R) was 94.5 nM, the “RMFI (relative maximum fold induction)” value ([1]; R) was 0.87 and the EC50 ([2]; R) was ~3 nM. For the same compound, the “RMFI (relative maximum fold induction)” value ([2]; R) was 0.76 and the melting point was 163 to 164 °C.
In the case of CCC[C@@H](N(NC(=O)c1cccc(C)c1)C(=O)c1cc(C)cc(C)c1)C(C)(C)C [Example 8, (R)-3,5-Dimethyl-benzoic acid N-(1-tert-butyl-butyl)-N′-(3-methyl-benzoyl)-hydrazide], the EC50 ([1]; R) is reported as ~30 nM, the “RMFI (relative maximum fold induction)” value ([1]; R) is reported as 0.86 and the EC50 ([2]; R) is reported as 1.2 nM. The “RMFI (relative maximum fold induction)” value ([2]; R) was 0.92 and the melting point was 158 to 159 °C.
For CCC[C@@H](N(NC(=O)c1ccc(OC)c(OC)c1)C(=O)c1cc(C)cc(C)c1)C(C)(C)C [Example 17, (R)-3,5-Dimethyl-benzoic acid N-(1-tert-butyl-butyl)-N′-(3,4-dimethoxy-benzoyl)-hydrazide], the EC50 ([1]; R) was ~4000 nM, the “RMFI (relative maximum fold induction)” value ([1]; R) was 0.27 and the EC50 ([2]; R) was ~300 nM. The “RMFI (relative maximum fold induction)” value ([2]; R) was 0.53 and the melting point was 121 to 123 °C.
In the case of CCC[C@@H](N(NC(=O)c1ccc(C)cc1)C(=O)c1cc(C)cc(C)c1)C(C)(C)C [Example 11, (R)-3,5-Dimethyl-benzoic acid N-(1-tert-butyl-butyl)-N′-(4-methyl-benzoyl)-hydrazide], the EC50 ([1]; R) is reported as ~20 nM, the “RMFI (relative maximum fold induction)” value ([1]; R) is reported as 0.74 and the EC50 ([2]; R) is reported as ~1 nM. For the same compound, the “RMFI (relative maximum fold induction)” value ([2]; R) was 0.90 and the melting point was 60 to 62 °C.
With CCC[C@@H](N(NC(=O)c1ccc(Cl)cc1)C(=O)c1cc(C)cc(C)c1)C(C)(C)C [Example 14, (R)-3,5-Dimethyl-benzoic acid N-(1-tert-butyl-butyl)-N′-(4-chloro-benzoyl)-hydrazide] the EC50 ([1]; R) was 140 nM, the “RMFI (relative maximum fold induction)” value ([1]; R) was 0.74 and the EC50 ([2]; R) was 51 nM. For the same compound, the “RMFI (relative maximum fold induction)” value ([2]; R) was 0.74 and the melting point was 87 to 89 °C.
With CCC[C@@H](N(NC(=O)c1ccccc1F)C(=O)c1cc(C)cc(C)c1)C(C)(C)C [Example 5, (R)-3,5-Dimethyl-bcnzoic acid N-(1-tert-butyl-butyl)-N′-(2-fluoro-benzoyl)-hydrazide] the EC50 ([1]; R) was ~40 nM, the “RMFI (relative maximum fold induction)” value ([1]; R) was 0.68 and the EC50 ([2]; R) was ~0.8 nM. For the same compound, the “RMFI (relative maximum fold induction)” value ([2]; R) was 1.16 and the melting point was 114 to 116 °C.
Work on CCC[C@@H](N(NC(=O)[C@@H](C)c1ccc2cc(OC)ccc2c1)C(=O)c1cc(C)cc(C)c1)C(C)(C)C [Example 30, (R)-3,5-Dimethyl-benzoic Acid N-(1-tert-butyl-butyl)-N′—(S)-[2-(6-methoxy-naphthalen-2-yl)-propionyl]-hydrazide] yielded a melting point of 98 °C.
In the case of CCC[C@H](N(NC(=O)c1cccs1)C(=O)c1cc(C)cc(C)c1)C(C)(C)C [Example 43, (S)-3,5-Dimethyl-benzoic acid N-(1-tert-butyl-butyl)-N′-(thiophene-2-carbonyl)-hydrazide], the EC50 ([1]; S) is reported as ~10000 nM, the “RMFI (relative maximum fold induction)” value ([1]; S) is reported as 0.07 and the EC50 ([2]; S) is reported as 1060 nM. The “RMFI (relative maximum fold induction)” value ([2]; S) was 0.52.
For CCC[C@H](N(NC(=O)c1cc(C)oc1C)C(=O)c1cc(C)cc(C)c1)C(C)(C)C [Example 44, (S)-3,5-Dimethyl-benzoic acid N-(1-tert-butyl-butyl)-N′-(2,5-dimethyl-furan-3-carbonyl)-hydrazide], the EC50 ([1]; S) was 7060 nM, the “RMFI (relative maximum fold induction)” value ([1]; S) was 0.32 and the EC50 ([2]; S) was ~2000 nM. The “RMFI (relative maximum fold induction)” value ([2]; S) was 0.49.
With CCCC(N(NC(=O)c1cc(OC)c(C)c(OC)c1)C(=O)c1cc(C)cc(C)c1)C(C)(C)C (racemic) [rac-19] the EC50 ([1]; rac, read-out: EC50) was > 10000 nM, the EC50 ([2]; rac, read-out: EC50) was 3930 nM and the “RMFI (relative maximum fold induction)” value ([2]; rac) was 0.15.
